From patent US20160209428A1, “DIAGNOSTIC AND PREDICTIVE METABOLITE PATTERNS FOR DISORDERS AFFECTING THE BRAIN AND NERVOUS SYSTEM” (THE REGENTS OF THE UNIVERSITY OF CALIFORNIA, priority 2013, published 2016)
“Also recorded” adds a separate entry of the source.

Legend:
[1] = tested on: maternal immune activation (MIA) mouse model; experiment: Social approach (social preference), MIA model; type: in vivo
Protocol: To initiate the MIA model, pregnant dams were given two intraperitoneal injections of Poly(I:C) (Potassium salt; Sigma-Aldrich, St. Louis, Mo., USA, Cat no. P9582; >99% pure; <1% mononucleotide content). These were quantified by UV spectrophotometry. One unit (U) of poly(IC) was defined as 1 absorbance unit at 260 nm. Typically, 1U=12 μg of RNA. 0.25U/g [3 mg kg^−1] of poly(IC) was given on E12.5 and 0.125U g^−1 (1.5 mg kg^−1) on E17.5 as previously described. Contemporaneous control pregnancies were produced by timed matings and randomized assignment of pregnant dams to saline injection (5 μl g^−1 intraperitoneally (i.p.)) on E12.5 and E17.5.
Offspring of timed matings were weaned at 3-4 weeks of age into cages of two to four animals. No mice were housed in isolation. Only males were evaluated in these studies. Littermates were identified by ear tags and distributed into different cages in order to minimize litter and dam effects. To avoid chance differences in groups selected for single-dose treatment, the saline and poly(IC) exposure groups were each balanced according to their social approach scores at 2.25 months. […] Beginning 2 days later, behaviors were evaluated. […]
Social behavior in mice can be quantified as the time spent interacting with a novel (‘stranger’) mouse compared with the total time spent interacting with either a mouse or a novel inanimate object.

[2] = tested on: maternal immune activation (MIA) mouse model; experiment: Plasma metabolomics after single-dose suramin or saline, MIA model; type: in vivo; details: for Pathway normalized by single-dose suramin treatment: MIA mice
Protocol: Only male animals that had been behaviorally evaluated were tested. Samples were analyzed on an AB SCIEX QTRAP 5500 triple quadrupole mass spectrometer equipped with a Turbo V electrospray ionization source, Shimadzu LC-20A UHPLC system and a PAL CTC autosampler (AB SCIEX). […] Plasma was separated by centrifugation at 600 g×5 min at 20° C. within 1 h of collection. Fresh lithium-heparin plasma was transferred to labeled tubes for storage at −80° C. for analysis. Typically, 45 μl of plasma was thawed on ice and transferred to a 1.7-ml Eppendorf tube. Two and one-half (2.5) microliters of a cocktail containing 35 commercial stable isotope internal standards and 2.5 μl of 310 stable isotope internal standards that were custom-synthesized in Escherichia coli and Saccharomyces cerevisiae by metabolic labeling with ^13C-glucose and ^13C-bicarbonate were added, mixed and incubated for 10 min at 20° C. to permit small molecules and vitamins in the internal standards to associate with plasma-binding proteins. Macromolecules (protein, DNA, RNA and so on) were precipitated by extraction with 4 volumes (200 μl) of cold (−20° C.), acetonitrile:methanol (50:50) (LCMS grade, Cat no. LC015-2.5 and GC230-4, Burdick & Jackson, Honeywell, Muskegon, Mich., USA), vortexed vigorously and incubated on crushed ice for 10 min, and then removed with centrifugation at 16000 g×10 min at 4° C. The supernatants containing the extracted metabolites and internal standards in the resulting 40:40:20 solvent mix of acetonitrile:methanol:water were transferred to labeled cryotubes and stored at −80° C. for LC-MS/MS (liquid chromatography-tandem mass spectrometry) analysis.
LC-MS/MS analysis was performed by MRM under the Analyst v1.6.1 software control in both negative and positive modes with rapid polarity switching (50 ms). Nitrogen was used for curtain gas (set to 30), collision gas (set to high) and ion source gases 1 and 2 (set to 35). The source temperature was 500° C. Spray voltage was set to −4500V in negative mode and to 5500V in positive mode. The values for Q1 and Q3 mass-to-charge ratios (mz−1), declustering potential, entrance potential, collision energy and collision cell exit potential were determined and optimized for each MRM for each metabolite. Ten microliters of extract were injected with PAL CTC autosampler into a 250 mm×2.1 mm, 5-μm Luna NH2 aminopropyl HPLC column (Phenomenex) held at 25° C. for chromatographic separation. […] The flow rate was 300 μl min^−1. All the samples were kept at 4° C. during analysis. The chromatographic peaks were identified using MultiQuant v2.1.1 (AB SCIEX), confirmed by manual inspection and the peak areas were integrated. The median of the peak area of stable isotope internal standards was calculated and used for the normalization of metabolite concentration across the samples and batches. N=6, 6.5-month-old males per group. Metabolite data were log-transformed before multivariate and univariate analyses.
Group means and s.e.m. are reported. Behavioral data involving more than two groups were analyzed by two-way analysis of variance (ANOVA) and one-way ANOVAs (GraphPad Prism 5.0d, GraphPad Software Inc., La Jolla, Calif., USA). Pair-wise post hoc testing was performed by the method of Tukey. Repeated measures ANOVA with prenatal treatment and drug as between subject factors and stimulus (mouse/cup) on time spent with mouse or cup was used as an additional test of social preference. Student's t-test was used for comparisons involving the two groups. Significance was set at P<0.05. Bonferroni post hoc correction was used to control for multiple hypothesis testing when t-tests were used to test social preference in two or more experimental groups. Metabolomic data were analyzed using multivariate partial least squares discriminant analysis, Ward hierarchical clustering and univariate one-way ANOVA with pairwise comparisons and post hoc correction by Fisher's least significant difference test in MetaboAnalyst.

Cc1ccc(C(=O)Nc2ccc(S(=O)(=O)O)c3cc(S(=O)(=O)O)cc(S(=O)(=O)O)c23)cc1NC(=O)c1cccc(NC(=O)Nc2cccc(C(=O)Nc3cc(C(=O)Nc4ccc(S(=O)(=O)O)c5cc(S(=O)(=O)O)cc(S(=O)(=O)O)c45)ccc3C)c2)c1 [Suramin, suramin]
social abnormalities ([1]; 6.5-month-old MIA adults, single dose suramin 20 mg kg^−1 i.p.): completely reversed
social behavior five weeks after suramin washout ([1]; MIA animals, 5 weeks after single dose): small residual benefit
Pathways normalized by single-dose suramin treatment, all disturbed pathways ([2]; 17/18 pathways disturbed in the MIA model, plasma): 94% (17/18)
Pathway normalized by single-dose suramin treatment ([2]; Amino-sugar and galactose metabolism, plasma): Yes (1/1)
Pathway normalized by single-dose suramin treatment ([2]; Bile salt metabolism, plasma): No (0/3)
Pathway normalized by single-dose suramin treatment ([2]; Biopterin, neopterin, molybdopterin metabolism, plasma): Yes (1/1)
Pathway normalized by single-dose suramin treatment ([2]; Cholesterol, cortisol, steroid metabolism, plasma): Yes (4/4)
Pathway normalized by single-dose suramin treatment ([2]; GABA, glutamate, arginine, omithine, proline metabolism, plasma): Yes (1/1)
Pathway normalized by single-dose suramin treatment ([2]; Glycolysis and gluconeogenesis, plasma): Yes (3/3)
Pathway normalized by single-dose suramin treatment ([2]; Krebs cycle, plasma): Yes (2/2)
bile salt pathway disturbance ([2]; MIA model): not restored
Pathway normalized by single-dose suramin treatment ([2]; Microbiome metabolism, plasma): Yes (6/6)
Pathway normalized by single-dose suramin treatment ([2]; Oxalate, glyxoylate metabolism, plasma): Yes (2/2)
Pathway normalized by single-dose suramin treatment ([2]; Phospholipid metabolism, plasma): Yes (4/4)
Pathway normalized by single-dose suramin treatment ([2]; Purine metabolism, (metabolites normalized/discriminating), plasma 2 days after single dose): Yes (9/11)
Pathway normalized by single-dose suramin treatment ([2]; Pyrimidine metabolism, plasma): Yes (1/1)
Pathway normalized by single-dose suramin treatment ([2]; SAM, SAH, methionine, cysteine, glutathione metabolism, plasma): Yes (1/1)
Pathway normalized by single-dose suramin treatment ([2]; Sphingolipid metabolism, plasma): Yes (4/4)
Pathway normalized by single-dose suramin treatment ([2]; Thyroxine metabolism, plasma): Yes (1/1)
Pathway normalized by single-dose suramin treatment ([2]; Tryptophan metabolism, plasma): Yes (1/1)
Pathway normalized by single-dose suramin treatment ([2]; Vitamin B2 (riboflavin) metabolism, plasma): Yes (1/1)
Pathway normalized by single-dose suramin treatment ([2]; Vitamin B3 (niacin/NAD) metabolism, plasma): Yes (1/1)
differences in metabolic profile between control and MIA animals ([2]; plasma 2 days after single dose suramin 20 mg kg^−1 i.p.): substantially normalized; also recorded: drives the metabolism of MIA animals (PIC-Sal) strongly in the direction of controls
